PMC11195807, “Development of a multi-targeted chemotherapeutic approach based on G-quadruplex stabilisation and carbonic anhydrase inhibition” (Journal of Enzyme Inhibition and Medicinal Chemistry, 2024)
Where “and” joins values, the source holds several entries; their conditions need not be identical. Identical values can stand only once. Like-named read-outs stand apart in the source and are kept apart here.

What was measured:
[1] = target: T1, hCA IX (Homo sapiens, UniProt Q16790); assay: stopped-flow CO2 hydrase assay, hCA IX; type: biochemical; settings: for Ki: mean ± SEM of three assays; for Selectivity index (SI) I/IX: hCA IX over hCA I; for Selectivity index (SI) II/IX: hCA IX over hCA II
T1 construct: made in house
Excerpt: (§1) An Applied Photophysics stopped-flow instrument has been used for assaying the CA-catalysed CO2 hydration activity, as reported earlier. […] All hCA isoforms were recombinant proteins, being obtained in-house as reported earlier.

[2] = target: T2, hCA XII (Homo sapiens, UniProt O43570); assay: stopped-flow CO2 hydrase assay, hCA XII; type: biochemical; settings: for Ki: mean ± SEM of three assays; for Selectivity index (SI) I/XII: hCA XII over hCA I; for Selectivity index (SI) II/XII: hCA XII over hCA II
T2 construct: made in house
T2 sequence (O43570 25-354): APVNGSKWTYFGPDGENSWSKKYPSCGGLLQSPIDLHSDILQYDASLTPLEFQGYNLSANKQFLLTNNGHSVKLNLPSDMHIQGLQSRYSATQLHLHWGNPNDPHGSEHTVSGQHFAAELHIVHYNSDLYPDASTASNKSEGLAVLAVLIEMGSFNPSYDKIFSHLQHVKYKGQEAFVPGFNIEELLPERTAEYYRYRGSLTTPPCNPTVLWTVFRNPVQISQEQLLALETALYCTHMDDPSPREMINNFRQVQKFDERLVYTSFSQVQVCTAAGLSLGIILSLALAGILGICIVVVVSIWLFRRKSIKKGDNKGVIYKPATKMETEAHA
Excerpt: as §1

[3] = tested on: HeLa cells; assay: MTT assay, HeLa cells in normoxia; type: cell-based; settings: normoxia; for IC50: Homo sapiens
Excerpt: Combining the results on carbonic anhydrase inhibition and GQ thermal stabilisation, we selected the sulphonamides S-2,0, S-4,0, S-5,0 and the coumarins C-3,2, C-4,2, C-5,2 as the most promising MTDLs to be further investigated, since able to both efficiently suppress the activity of the hCAs IX/XII and stabilise GQ structures, in vitro. Moreover, given that crystals suitable for X-ray diffraction analyses had been successfully obtained for the human telomeric DNA GQ in complex with S-3,2, we also included such sulphonamide derivative in the subsequent studies. Thus, we assessed the cytotoxicity of the selected MTDLs on CA IX-positive HeLa cells, using the MTT assay.
HeLa cells were grown in Dulbecco’s Modified Eagle’s Medium supplemented with 10% FBS, 100 U/mL penicillin, and 100 μg/mL streptomycin, at 37 °C, in a 5% CO2/95% air atmosphere. Cells were sub-cultured at 90% confluence, in the split ratio 1:8, every 3–5 days. The MTDLs used in this study, as well as the CAIs S and C, were dissolved in DMSO at 40 mM (for the sulphonamides) or 10 mM (for the coumarins) concentration. As for berberine, a 50 mM stock solution in DMSO was prepared. Each tested compound was diluted in cell culture medium to the required concentration, immediately prior to use. As regards the experiments under hypoxic conditions, an 80 mM stock solution of CoCl2 was prepared in sterile distilled water and further diluted in medium to obtain the final desired concentrations.
For the MTT experiments in the presence of normal oxygen levels, HeLa cells were seeded in 96-well plates at a density of 15,000 cells per well (culture medium volume – 100 μL/well) and incubated at 37 °C, for 24 h. The medium was then removed, and HeLa were incubated, for 48 h, with fresh medium containing increasing concentrations of MTDLs, single-target-directed agents (berberine, S, and C) or vehicle (0.5% DMSO). The MTDL C-4,2 was also tested for 12 h. As for the co-treatments, cells were co-treated for 12 h with equimolar concentrations of berberine and C. As regards the MTT experiments under hypoxic conditions, HeLa cells were seeded in 96-well plates (8,000 cells per well) and incubated overnight, pre-treated with 50 μM cobalt (II) chloride hexahydrate (CoCl2) and then, for the following 12 h, either exposed to increasing concentrations of C-4,2 or vehicle (0.5% DMSO), or co-treated with equimolar concentrations of berberine and C. Each condition was assayed in triplicate. At the end of the treatments, 10 µL of MTT reagent were added to each well, at a final concentration of 0.5 mg/mL, and the plates were incubated at 37 °C for 4 h. To dissolve the resulting purple formazan crystals, 100 μL of the solubilisation solution were added into each well and the plates were allowed to stand overnight in the incubator (37 °C, 5% CO2/95% air). Finally, the optical density of the samples (at 570 nm) was measured on an ELx800 Absorbance Microplate Reader (BioTek Instruments, Inc., Winooski, VT, USA). The percentage (%) of cell survival for each condition was calculated by using the following equation: % cell survival=OD− OD0/ODCONTROL− OD0×100 where OD is the optical density of the sample, OD0 is the optical density of the background signal, and ODCONTROL is the optical density of the control sample (cells treated with vehicle, 0.5% DMSO). The concentration able to reduce by 50% the cellular viability (IC50) was calculated, for each investigated compound, using Prism 8.0.2 (GraphPad, San Diego, CA, USA) and plotting the percentage of cell survival versus the compound concentration (µM).

[4] = tested on: c-Kit1; assay: CD melting experiments, c-Kit1 GQ; type: binding; settings: for ΔT1/2 c-Kit1: 2 molar equiv compound, T1/2 of DNA alone 55.0 °C; for ΔΔT1/2 c-Kit1: ΔT1/2 of compound minus ΔT1/2 of berberine, 2 molar equiv
[5] = tested on: Tel23; assay: CD melting experiments, Tel23 GQ; type: binding, human; settings: for ΔT1/2 Tel23: 2 molar equiv compound, T1/2 of DNA alone 53.5 °C; for ΔΔT1/2 Tel23: ΔT1/2 of compound minus ΔT1/2 of berberine, 2 molar equiv
[6] = tested on: Hairpin; assay: CD melting experiments, hairpin DNA duplex; settings: 2 molar equiv compound, T1/2 of DNA alone 66.0 °C
Description: To evaluate the possible binding and stabilisation of double-stranded DNA, a 27-nt long hairpin-forming sequence (Hairpin) was employed.
In particular, the following DNA sequences were synthesised and employed for the experiments: d([sequence]) (c-Kit1), d([sequence]) (c-Myc), d([sequence]) (Tel23), and d([sequence]) (Hairpin). Oligonucleotides were dissolved in the proper buffer and their concentration was measured by UV absorption at 90 °C, as previously reported[80]^,[81]. To achieve the correct folding of the sequences, the DNA solutions were heated in a water bath at 90 °C for 5 min, and then allowed to cool slowly to room temperature overnight. Then, DNA samples were stored at 4 °C for 24 h, before data acquisition.
The samples were prepared by dissolving the oligonucleotides in 5 mM KH2PO4/K2HPO4 buffer (pH 7.0) containing 20 mM KCl (or LiCl in the case of c-Myc because of its high thermal stability). DNA concentrations of 20 µM for GQs and 30 µM for Hairpin were used. For each compound, a 10 mM stock solution in 100% DMSO was prepared. […] CD spectra were acquired at 20 and 100 °C, in the 230–320 nm wavelength range, averaged over three scans and subtracted of the buffer baseline. The scanning speed was set to 100 nm/min, with a 0.5 s response time, and 1 nm bandwidth. CD melting experiments were carried out in the 20–100 °C temperature range, with 1 °C/min heating rate, by following changes in the CD signal at the wavelengths of the maximum CD intensity (i.e. 263 nm for c-Kit1 and c-Myc, and 290 nm for Tel23). As for Hairpin, CD melting curves were recorded by following the changes in the CD signal at 252 nm (the wavelength of the minimum CD intensity). CD melting curves were normalised between 0 and 1. […] The ΔT1/2 values correspond to the difference in the T1/2 values of the nucleic acid structures in the presence and absence of the compounds. All experiments were performed in duplicate, and the reported values are the mean of the two measurements.

[7] = tested on: c-Myc; assay: CD melting experiments, c-Myc GQ; type: binding; settings: for ΔΔT1/2 c-Myc: ΔT1/2 of compound minus ΔT1/2 of berberine, 1 molar equiv; for ΔT1/2 c-Myc: 1 molar equiv compound, T1/2 of DNA alone 70.0 °C
[8] = coumarins, inhibitor-enzyme incubation 6 h
[9] = 48 h, read-out: IC50 (50% of cell viability reduction), MTT assay
[10] = sulphonamides, inhibitor-enzyme incubation 15 min

Compound	Ki [1, 8] [nM]	Selectivity index (SI) I/IX [1]	Selectivity index (SI) II/IX [1]	Ki [2, 8] [nM]	Selectivity index (SI) I/XII [2]	Selectivity index (SI) II/XII [2]	IC50 [3, 9] [nM]	ΔT1/2 c-Kit1 [4] [°C]	ΔΔT1/2 c-Kit1 [4] [°C]	ΔT1/2 Tel23 [5] [°C]	ΔΔT1/2 Tel23 [5] [°C]	ΔT1/2 Hairpin [6]	ΔΔT1/2 c-Myc [7] [°C]	Ki [1, 10]	Ki [2, 10] [nM]	IC50 (50% of cell viability reduction), MTT assay ([3]; 48 h)	ΔT1/2 c-Myc [7] [°C]	other results
COc1ccc2cc3[n+](cc2c1OCCCCCn1cc(COc2ccc4ccc(=O)oc4c2)nn1)CCc1cc2c(cc1-3)OCO2 [Compound 39, 10-Methoxy-9-((5–(4-(((2-oxo-2H-chromen-7-yl)oxy)methyl)-1H-1,2,3-triazol-1-yl)pentyl)oxy)-5,6-dihydro-[1,3]dioxolo[4,5-g]isoquinolino[3,2-a]isoquinolin-7-ium hexafluorophosphate]	48.6 ± 2.6	> 205.8	> 205.8	20.1 ± 1.3	> 497.5	> 497.5	37500	20.0	7.0	8.5	−1.0	-1.0 °C	>13.0	–	–	–	–	ΔΔT1/2 c-Myc ([7]; listed as C-5,2): > 13.0 °C
COc1ccc2cc3[n+](cc2c1OCCn1cc(-c2ccc(S(N)(=O)=O)cc2)nn1)CCc1cc2c(cc1-3)OCO2 [Compound 26, 10-Methoxy-9–(2-(4–(4-sulfamoylphenyl)-1H-1,2,3-triazol-1-yl)ethoxy)-5,6-dihydro-[1,3]dioxolo[4,5-g]isoquinolino[3,2-a]isoquinolin-7-ium hexafluorophosphate]	–	414.6	42.4	–	79.5	8.1	> 200000	22.0	9.0	10.0	0.5	-0.5 °C	>13.0	1.1 nM and 1.4 nM	7.3 ± 0.5	fell outside the explored range of concentrations	–	ΔΔT1/2 c-Kit1 ([4]; listed as S-2,0): ≥ 6.0 °C; ΔΔT1/2 c-Myc ([7]; listed as S-2,0): > 13.0 °C
COc1ccc2cc3[n+](cc2c1OCCCCn1cc(-c2ccc(S(N)(=O)=O)cc2)nn1)CCc1cc2c(cc1-3)OCO2 [Compound 30, 10-Methoxy-9–(4–(4-(4-sulfamoylphenyl)-1H-1,2,3-triazol-1-yl)butoxy)-5,6-dihydro-[1,3]dioxolo[4,5-g]isoquinolino[3,2-a]isoquinolin-7-ium hexafluorophosphate]	–	1209	112.4	–	23.2	2.2	35000	20.5	7.5	9.0	−0.5	-1.0 °C	>13.0	0.49 ± 0.03 nM	25.5 ± 1.4	–	–	ΔΔT1/2 c-Kit1 ([4]; listed as S-4,0): ≥ 6.0 °C; ΔΔT1/2 c-Myc ([7]; listed as S-4,0): > 13.0 °C
COc1ccc2cc3[n+](cc2c1OCCCCn1cc(COc2ccc4ccc(=O)oc4c2)nn1)CCc1cc2c(cc1-3)OCO2 [Compound 37, 10-Methoxy-9–(4-(4-(((2-oxo-2H-chromen-7-yl)oxy)methyl)-1H-1,2,3-triazol-1-yl)butoxy)-5,6-dihydro-[1,3]dioxolo[4,5-g]isoquinolino[3,2-a]isoquinolin-7-ium hexafluorophosphate]	17.3 ± 1.2	> 578.0	> 578.0	8.4 ± 0.5	> 1190	> 1190	40000	17.5	4.5	9.0	−0.5	+0.5 °C	1.0	–	–	–	13.0	cytotoxicity compared with co-exposure to equimolar berberine and C ([3]; 12 h): greater; IC50 ([3]; 12 h treatment, read-out: IC50, MTT assay): 46000 nM
COc1ccc2cc3[n+](cc2c1OCCCn1cc(COc2ccc(S(N)(=O)=O)cc2)nn1)CCc1cc2c(cc1-3)OCO2 [Compound 29, 10-Methoxy-9–(3-(4-((4-sulfamoylphenoxy)methyl)-1H-1,2,3-triazol-1-yl)propoxy)-5,6-dihydro-[1,3]dioxolo[4,5-g]isoquinolino[3,2-a]isoquinolin-7-ium hexafluorophosphate]	–	1437	111.3	–	25.8	2.0	> 200000	16.0	3.0	8.0	−1.5	-0.5 °C	4.5	0.56 ± 0.03 nM	31.2 ± 2.5	fell outside the explored range of concentrations	16.5	–
